Series [1] concerns RNK-16 chymase. Kind of series: Inactivation of RNK-16 granule chymase activity. In kind it is biochemical. Particulars: granule protease activity.
For the next series, the target named is chymotrypsin (Bos taurus, UniProt P00766). As to the kind of experiment: Inactivation of chymotrypsin, incubation method. The class given is biochemical, bovine. Particulars: for kobsd /(I) Chymotrypsin: 0.1 M Hepes, 0.5 M NaCl, pH 7.5, 5-10% Me2SO, 25° C., NI = no inhibition after 40 min of incubation. As to the method: (§1) Inactivation rates of serine proteases by fluorescent peptidylphosphonates were measured by the incubation method. In each case the inactivation experiment was preceded by an enzyme assay in which the hydrolysis of peptide p-nitroanilide substrates, catalyzed by chymotrypsin, PPE, HLE, and trypsin was measured in 0.1M Hepes and 0.5M NaCl (0.01M CaCl2 for trypsin), pH 7.5 buffer containing 5-10% Me2 SO at 25° C. Stock solutions of substrates were prepared in Me2 SO (20 mM) and stored at -20° C. Final substrate concentrations were 0.24 mM. Chymotrypsin activity was assayed with Suc-Val-Pro-Phe-NA. PPE was assayed with Suc-Ala-Ala-Ala-NA. HLE was assayed with MeO-Suc-Ala-Ala-Pro-Val-NA and trypsin was assayed with Z-Arg-NA. The initial rates of hydrolysis were measured at 410 nm (ε410 =8800 M^-1 cm^-1) on a Beckman 35 spectrophotometer after 25-50 μL of an enzyme stock solution was added to a cuvette containing 2.0 mL of buffer and 25 μL of substrate.
(§2) Each inhibition reaction was initiated by adding a 50 μL aliquot of inhibitor (100-5000 μM in Me2 SO) to 0.5 mL of a 0.1M Hepes, 0.5M NaCl (0.01M CaCl2 for trypsin), pH 7.5 buffer containing 50 μL of a stock enzyme solution at 25° C. The enzyme stock solutions were 20 μM chymotrypsin, trypsin, and PPE in 1 mM HCl (pH 3), and 0.4-4 μM HLE in 0.25M NaAc and 1M NaCl at pH 5.5. All the enzyme stock solutions were stored at -20° C. prior to use. Aliquots (25 μL) were withdrawn at various intervals and the residual enzymatic activity was measured spectrophotometrically as described above. Pseudo first-order inactivation rate constants (kobsd) were obtained from plots of ln vt /vo vs time and had correlation coefficients greater than 0.98. Each kobsd was calculated from 5-10 activity determinations which extended to 2-3 half lives. Control experiments were carried out in the same way as described above except Me2 SO was added in place of the inhibitor solution in Me2 SO. […] These initial rates were used as vo in the calculation of the inhibition rate constants.

Series [2] relates to tryptase granule protease. As to the kind of experiment: Inactivation of RNK-16 granule tryptase activity. In kind it is biochemical. Particulars: RNK-16 granule protease activity.
For series [3], the target named is T1, porcine pancreatic elastase (PPE) (Sus scrofa, UniProt P00772).
T1 construct: purchased United States Biochemical Corp., Cleveland, Ohio
T1 sequence (P00772 27-266): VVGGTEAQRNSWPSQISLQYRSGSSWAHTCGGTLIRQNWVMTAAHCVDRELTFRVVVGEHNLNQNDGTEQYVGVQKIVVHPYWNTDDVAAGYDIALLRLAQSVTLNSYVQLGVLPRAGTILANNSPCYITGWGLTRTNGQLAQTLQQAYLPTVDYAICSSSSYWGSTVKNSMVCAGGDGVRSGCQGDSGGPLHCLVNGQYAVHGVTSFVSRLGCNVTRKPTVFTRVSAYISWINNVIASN
As to the kind of experiment: Inactivation of PPE, incubation method. In kind it is biochemical. Particulars: 0.1 M Hepes, 0.5 M NaCl, pH 7.5, 5-10% Me2SO, 25° C.; NI = no inhibition after 40 min of incubation. The procedure: as §1, §2

A further series concerns RNK-16 cells. Kind of series: Cell labeling and confocal imaging of NK line RNK-16. The class given is cell-based. Particulars: live RNK-16 cells, 0.1 mM inhibitor, 30 minutes, 37° C., confocal microscopy. The procedure: Cell Labeling and Imaging. Cells of the NK line RNK-16 were labeled as live cells, washed, treated with methanol as a fixative and permeabilizing agent, and then examined by confocal microscopy. The cells were treated at 1×10^7 cells/mL in RPMI 1640 culture media (Sigma Chemical Co., St. Louis, Mo.) containing 10 mM Hepes with 0.1 mM FTC-Aca-Ala-Ala-Met^P (OPh)2 for 30 minutes at 37° C. Control cells were treated with the same volume of DMSO required to deliver the inhibitor (typically 1% final concentration). Cells were then washed several times with phosphate buffered saline (PBS) to remove excess inhibitor. They were suspended overnight in cold 80% methanol to permeabilize the membrane. The cells were washed free of MeOH into PBS and fixed onto poly-L-lysine (Sigma) coated microscope slides using 3% paraformaldehyde. Fixed slides were washed in PBS, coated with Vectashield (Vector Laboratories, Inc., Burlingame, Ca.) to prevent fluorescence fading and topped with a coverslip. Fluorescent laser scanning confocal microscopy was done with a Bio-Rad MRC 600 confocal system utilizing a Zeiss Axiophot microscope and equipped with a mixed-gas argon/krypton ion laser using 488 nm excitation for fluorescein.

A further series deals with T2, Asp-ase granule protease (Rattus norvegicus, UniProt P18291).
T2 construct: endogenous in cells; host or cells: RNK-16
T2 sequence (P18291 21-248): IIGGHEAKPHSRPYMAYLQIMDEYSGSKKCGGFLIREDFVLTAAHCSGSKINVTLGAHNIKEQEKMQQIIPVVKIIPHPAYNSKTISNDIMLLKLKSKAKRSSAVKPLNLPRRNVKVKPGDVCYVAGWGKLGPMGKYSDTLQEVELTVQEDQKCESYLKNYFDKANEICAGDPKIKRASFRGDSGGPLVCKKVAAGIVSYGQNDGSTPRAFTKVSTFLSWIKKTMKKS
Kind of series: Inactivation of RNK-16 granule Asp-ase activity. In kind it is biochemical. Particulars: RNK-16 granule protease activity.

The target in series [4] is T3, human leukocyte elastase (HLE) (Homo sapiens, UniProt P08246).
T3 construct: purchased Athens Research and Technology, Inc., Athens, Ga
T3 sequence (P08246 30-267): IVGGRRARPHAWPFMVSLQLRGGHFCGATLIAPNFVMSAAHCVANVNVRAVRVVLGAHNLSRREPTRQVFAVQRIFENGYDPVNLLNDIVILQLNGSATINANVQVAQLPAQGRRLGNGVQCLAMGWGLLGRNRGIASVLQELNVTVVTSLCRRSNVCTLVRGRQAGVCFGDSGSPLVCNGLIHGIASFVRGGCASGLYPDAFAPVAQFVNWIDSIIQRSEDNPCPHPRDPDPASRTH
Kind of series: Inactivation of HLE, incubation method. Particulars: 0.1 M Hepes, 0.5 M NaCl, pH 7.5, 5-10% Me2SO, 25° C.; NI = no inhibition after 40 min of incubation. In kind it is biochemical. As to the method:
as §1, §2

Series [5] concerns tryptase granule protease. Particulars: previous approach, comparison; cited from earlier work.
Series [6] has as its system RNK-16 chymase. Particulars: previous approach, comparison; cited from earlier work.

In the case of `CSCCC(NC(=O)[C@H](C)NC(=O)[C@H](C)NC(=O)CCCCCNC(=S)Nc1ccc2c(c1)C(=O)OC21c2ccc(O)cc2Oc2cc(O)ccc21)P(=O)(Oc1ccccc1)Oc1ccccc1` (stereo partly drawn) [Compound 1, Diphenyl 1-(6-(5-Fluoresceinylthiocarbamoylamino)caproylalanylalanylamino)-3-(methylthio)propanephosphonate], in the series on RNK-16 chymase [1], the “inactivation of RNK-16 chymase” value was “inactivated”. On chymotrypsin, the “kobsd /(I) Chymotrypsin” value turned out to be 190 M⁻¹ s⁻¹. For the same molecule, in series [2], the “inactivation of tryptase granule protease activity” value was “little”. The “kobsd /(I) PPE” value in series [3] came to 13 M⁻¹ s⁻¹. Further, the “fluorescent labeling of cells” value in the series on RNK-16 cells is “reacted with distinct, granule-like regions”. Further, the “inactivation of Asp-ase granule protease activity” value at Asp-ase granule protease is “little”. The “kobsd /(I) HLE” value in series [4] is 22 M⁻¹ s⁻¹.

With `CC(NC(=O)[C@H](C)NC(=O)[C@H](C)NC(=O)CCCCCNC(=S)Nc1ccc2c(c1)C(=O)OC21c2ccc(O)cc2Oc2cc(O)ccc21)P(=O)(Oc1ccccc1)Oc1ccccc1` (stereo partly drawn) [Compound 2, Diphenyl 1-(6-(5-Fluoresceinylthiocarbamoylamino)caproylalanylalanylamino) ethanephosphonate], the “kobsd /(I) PPE” value in series [3] amounted to 22 M⁻¹ s⁻¹.

In the case of `CC(C)C[C@H](NC(=O)[C@H](Cc1ccccc1)NC(=O)CCCCCNC(=S)Nc1ccc2c(c1)C(=O)OC21c2ccc(O)cc2Oc2cc(O)ccc21)C(=O)NC(Cc1ccccc1)P(=O)(Oc1ccccc1)Oc1ccccc1` (stereo partly drawn) [Compound 3, Diphenyl 1-(6-(5-Fluoresceinylthiocarbamoylamino)caproylphenylalanylleucylamino)-2-phenylethanephosphonate], the “times faster inhibition of chymotrypsin than of HLE” value on chymotrypsin (ratio of kobsd/(I) chymotrypsin to HLE) was 600. In addition, the “kobsd /(I) PPE” value in series [3] turned out to be 16 M⁻¹ s⁻¹.

Turning to `CSCCC(NC(=O)[C@H](C)NC(=O)[C@H](C)NC(=O)OC(C)(C)C)P(=O)(Oc1ccccc1)Oc1ccccc1` (stereo partly drawn) [Compound 5, Boc-Ala-Ala-Met^P (OPh)2, reference compound], at chymotrypsin, the “kobsd /(I) Chymotrypsin” value worked out at 3 M⁻¹ s⁻¹. Moreover, the “kobsd /(I) PPE” value in series [3] stood at 3 M⁻¹ s⁻¹. The “kobsd /(I) HLE” value in series [4] came to 2 M⁻¹ s⁻¹.

As for `CC(NC(=O)[C@H](C)NC(=O)[C@H](C)NC(=O)OCc1ccccc1)P(=O)(Oc1ccccc1)Oc1ccccc1` (stereo partly drawn) [Compound 6, Z-Ala-Ala-Ala^P (OPh)2, reference compound], in series [3], the “kobsd /(I) PPE” value amounted to 30 M⁻¹ s⁻¹.

For `CC(C)C[C@H](NC(=O)[C@H](Cc1ccccc1)NC(=O)OCc1ccccc1)C(=O)NC(Cc1ccccc1)P(=O)(Oc1ccccc1)Oc1ccccc1` (stereo partly drawn) [Compound 7, Z-Phe-Leu-Phe^P (OPh)2, reference compound], the “kobsd /(I) Chymotrypsin” value on chymotrypsin was 110 M⁻¹ s⁻¹. Besides, the “kobsd /(I) HLE” value in series [4] was 27 M⁻¹ s⁻¹.

Consider “Diphenyl 1-(6-(4(or 2)(9-(2,3,6,7,12,13,16,17-octahydro-1H,5H,11H,15H-xantheno(2,3,4-ij:5,6,7- i'j')diquinolizinyl-18-ium))3(or 5)sulfo-1-phenylsulfonamido)caproylphenylalanylleucylamino)-2-phenylethanephosphonate, Hydroxide, Inner Salt [Compound 4]”, for which, on chymotrypsin, the “kobsd /(I) Chymotrypsin” value turned out to be 15 M⁻¹ s⁻¹. In addition, the “kobsd /(I) PPE” value in [3] worked out at 11 M⁻¹ s⁻¹. In addition, the “kobsd /(I) HLE” value in series [4] was found to be 96 M⁻¹ s⁻¹.

B1: soybean trypsin inhibitor: reversible serine protease inhibitor, macromolecular inhibitor (protein, UniProt P01070 25-205, looked up)
Trypsin inhibitor A: DFVLDNEGNPLENGGTYYILSDITAFGGIRAAPTGNERCPLTVVQSRNELDKGIGTIISSPYRIRFIAEGHPLSLKFDSFAVIMLCVGIPTEWSVVEDLPEGPAVKIGENKDAMDGWFRLERVSDDEFNNYKLVFCPQQAEDDKCGDIGISIDHDDGTRRLVVSKNKPLVVQFQKLDKESL
In the case of B1, the “inactivation of tryptases of cytotoxic lymphocytes” value in series [5] is recorded as “inactivated”. Moreover, the “inactivation of chymases of cytotoxic lymphocytes” value in the series with RNK-16 chymase [6] was “inactivated”.

The record behind these values is patent publication US5681821A, “Fluorescent 1-peptidylaminoalkanephosphonate derivatives” (Georgia Tech Research Corp., priority 1994, dated 1997).
